Experimental data from publication PMC9053591 (RSC Advances, 2020).
Several values for one entry are separate records, joined by “and”; a condition that tells them apart may be missing. Identical values can stand only once. Counter-ions that a name gives are not always drawn.

Key:
AChE from electric eel = AChE from electric eel (Electrophorus electricus, UniProt O42275); test: AChE inhibition, Ellman's method; assay type: biochemical; settings: IC50 ± SD (μM) AChE, means ± SD of three experiments
BuChE from equine serum = BuChE from equine serum (Equus caballus, UniProt P81908); test: BuChE inhibition, Ellman's method; assay type: biochemical
AChE = AChE (Electrophorus electricus, UniProt O42275); test: Kinetic characterization of AChE inhibition, Lineweaver–Burk plot; assay type: biochemical; settings: Lineweaver–Burk reciprocal plots; compound at 2, 6 and 8 μM
[1] = In vitro cytotoxicity, MTT assay; assay type: cell-based, human; settings: human, SH-SY5Y cells
SH-SY5Y cells [2] = test: In vitro cytotoxicity, MTT assay; assay type: cell-based, human; settings: 1 and 5 μM, 24 h, MTT
[3] = system: scopolamine induced mice model of dementia; test: Elevated plus maze; assay type: in vivo; settings: n = 6, SEM
scopolamine induced mice = test: Social recognition test, scopolamine induced mice; assay type: in vivo
Aβ1-42 [4] = molecular target: T1, Aβ1-42 (Homo sapiens, UniProt P05067); test: Confocal laser scanning microscopy of Aβ1-42 aggregation inhibition; assay type: biochemical; settings: Aβ1-42 co-incubated with compound, 48 h, 37 °C
Aβ1-42 [5] = molecular target: T1, Aβ1-42; test: TEM study of inhibition of Aβ1-42 fibril formation; assay type: biochemical; settings: Aβ1-42 50 μM, compound 50 μM, 37 °C, 48 h
SH-SY5Y cells [6] = test: Neuroprotection against H2O2-induced death, MTT assay; settings: 200 μM H2O2 for 24 h

Chain of BuChE from equine serum (P81908 whole entry): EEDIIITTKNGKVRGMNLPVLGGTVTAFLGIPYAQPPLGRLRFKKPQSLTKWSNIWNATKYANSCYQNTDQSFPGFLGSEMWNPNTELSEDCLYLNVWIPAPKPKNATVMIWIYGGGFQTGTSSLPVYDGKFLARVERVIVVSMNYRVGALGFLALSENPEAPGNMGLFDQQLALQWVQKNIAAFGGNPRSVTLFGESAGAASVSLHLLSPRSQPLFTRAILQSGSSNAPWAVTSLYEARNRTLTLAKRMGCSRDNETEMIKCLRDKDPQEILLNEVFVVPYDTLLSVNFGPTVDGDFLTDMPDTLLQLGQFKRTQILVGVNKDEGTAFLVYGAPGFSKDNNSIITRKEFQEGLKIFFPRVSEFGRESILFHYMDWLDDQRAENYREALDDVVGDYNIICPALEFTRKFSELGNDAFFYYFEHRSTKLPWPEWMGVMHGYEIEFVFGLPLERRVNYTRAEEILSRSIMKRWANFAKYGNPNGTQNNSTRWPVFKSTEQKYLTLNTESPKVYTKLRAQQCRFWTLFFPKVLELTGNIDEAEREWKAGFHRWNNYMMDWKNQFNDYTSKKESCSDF
T1 sequence (P05067 672-713): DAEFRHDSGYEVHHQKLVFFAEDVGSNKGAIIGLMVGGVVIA
Chain of AChE from electric eel (O42275 24-633): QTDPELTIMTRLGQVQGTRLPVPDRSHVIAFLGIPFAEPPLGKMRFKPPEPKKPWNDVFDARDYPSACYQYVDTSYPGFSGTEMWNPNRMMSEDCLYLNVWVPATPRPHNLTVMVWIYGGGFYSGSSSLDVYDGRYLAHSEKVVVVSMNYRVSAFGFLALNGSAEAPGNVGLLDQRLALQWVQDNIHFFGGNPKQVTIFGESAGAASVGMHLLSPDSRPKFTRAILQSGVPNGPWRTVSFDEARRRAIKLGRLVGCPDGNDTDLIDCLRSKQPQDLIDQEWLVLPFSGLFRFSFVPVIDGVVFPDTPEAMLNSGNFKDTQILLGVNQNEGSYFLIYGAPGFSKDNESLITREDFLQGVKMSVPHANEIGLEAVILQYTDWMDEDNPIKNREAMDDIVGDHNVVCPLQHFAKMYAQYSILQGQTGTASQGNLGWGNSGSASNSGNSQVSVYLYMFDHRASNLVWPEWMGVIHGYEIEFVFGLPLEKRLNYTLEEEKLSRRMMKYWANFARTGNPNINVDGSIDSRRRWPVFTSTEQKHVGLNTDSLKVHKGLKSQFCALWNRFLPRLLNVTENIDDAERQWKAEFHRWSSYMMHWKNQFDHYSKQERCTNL
Chain of AChE (O42275 24-633): as above

Structure (SMILES)	IC50 (AChE from electric eel)	IC50 (BuChE from equine serum) [µM]	other results
CS(=O)(=O)c1ccc2nc(NC(=O)CCN3CCN(c4ccccc4)CC3)sc2c1 [Compound 4, N-(6-Methanesulfonyl-benzothiazol-2-yl)-3-(4-phenyl-piperazin-1-yl)-propionamide]	24.1 ± 0.721 µM	> 100	
CS(=O)(=O)c1ccc2nc(NC(=O)CCN3CCN(c4ccc(F)cc4)CC3)sc2c1 [Compound 5, 3-[4-(4-Fluoro-phenyl)-piperazin-1-yl]-N-(6-methanesulfonyl-benzothiazol-2-yl)-propionamide]	18.3 ± 0.777 µM	> 100	
CS(=O)(=O)c1ccc2nc(NC(=O)CCN3CCN(c4ccc(Cl)cc4)CC3)sc2c1 [Compound 6, 3-[4-(4-Chloro-phenyl)-piperazin-1-yl]-N-(6-methanesulfonyl-benzothiazol-2-yl)-propionamide]	13 ± 0.813 µM	> 100	
CS(=O)(=O)c1ccc2nc(NC(=O)CCN3CCN(c4ccc([N+](=O)[O-])cc4)CC3)sc2c1 [Compound 7, N-(6-Methanesulfonyl-benzothiazol-2-yl)-3-[4-(4-nitro-phenyl)-piperazin-1-yl]-propionamide]	11.3 ± 1.8 µM	> 100	
Cc1ccc(N2CCN(CCC(=O)Nc3nc4ccc(S(C)(=O)=O)cc4s3)CC2)cc1 [Compound 8, N-(6-Methanesulfonyl-benzothiazol-2-yl)-3-(4-p-tolyl-piperazin-1-yl)-propionamide]	20.2 ± 1.44 µM	> 100	
COc1ccc(N2CCN(CCC(=O)Nc3nc4ccc(S(C)(=O)=O)cc4s3)CC2)cc1 [Compound 9, N-(6-Methanesulfonyl-benzothiazol-2-yl)-3-[4-(4-methoxy-phenyl)-piperazin-1-yl]-propionamide]	14.5 ± 1.03 µM	> 100	
CS(=O)(=O)c1ccc2nc(NC(=O)CCN3CCN(Cc4ccccc4)CC3)sc2c1 [Compound 10, 3-(4-Benzyl-piperazin-1-yl)-N-(6-methanesulfonyl-benzothiazol-2-yl)-propionamide]	7.83 µM	> 100	
CS(=O)(=O)c1ccc2nc(NC(=O)CCN3CCN(C(c4ccccc4)c4ccccc4)CC3)sc2c1 [Compound 11, 3-(4-Benzhydryl-piperazin-1-yl)-N-(6-methanesulfonyl-benzothiazol-2-yl)-propionamide]	4.54 µM and 4.55 µM	> 100	
CS(=O)(=O)c1ccc2nc(NC(=O)CCN3CCN(c4ccccn4)CC3)sc2c1 [Compound 12, N-(6-Methanesulfonyl-benzothiazol-2-yl)-3-(4-pyridin-2-yl-piperazin-1-yl)-propionamide]	2.31 µM and 2.32 µM	> 100	Type of AChE inhibition (AChE): uncompetitive type of inhibition; viability at 24 h, 10 µM [1]: > 67%; Cytotoxicity (SH-SY5Y cells [2]): no cytotoxicity; Transfer latency (TL) ([3]; scopolamine 3 mg kg−1 + compound 10 mg kg−1 i.p., 7 days): 12.81 ± 2.08 s; Transfer latency (TL) ([3]; scopolamine 3 mg kg−1 + compound 20 mg kg−1 i.p., 7 days): 12.62 ± 2.60 s; T2/T1 ratio (second interaction trial/first interaction trial) (scopolamine induced mice; scopolamine + compound 20 mg kg−1, mean SEM of 6 animals): 0.377 ± 0.00072; Aβ1-42 aggregation by confocal laser scanning microscopy (ThT fluorescence) (Aβ1-42 [4]): proficiently prevents Aβ1-42 fibril formation; Aβ1-42 fibril formation by TEM (Aβ1-42 [5]): small dissociated aggregates and no characteristic fibrils of Aβ1-42
CS(=O)(=O)c1ccc2nc(NC(=O)CCN3CCN(c4ncccn4)CC3)sc2c1 [Compound 13, N-(6-Methanesulfonyl-benzothiazol-2-yl)-3-(4-pyrimidin-2-yl-piperazin-1-yl)-propionamide]	10.9 ± 0.657 µM	> 100	
CS(=O)(=O)c1ccc2nc(NC(=O)CCN3CCN(C(=O)c4ccco4)CC3)sc2c1 [Compound 14, 3-[4-(Furan-2-carbonyl)-piperazin-1-yl]-N-(6-methanesulfonyl-benzothiazol-2-yl)-propionamide]	14.6 ± 0.438 µM	> 100	
CS(=O)(=O)c1ccc2nc(NC(=O)CCN3CCN(C(=O)OCc4ccccc4)CC3)sc2c1 [Compound 15, 4-[2-(6-Methanesulfonyl-benzothiazol-2-ylcarbamoyl)-ethyl]-piperazine-1-carboxylic acid benzyl ester]	19.5 ± 0.452 µM	> 100	
CS(=O)(=O)c1ccc2nc(NC(=O)CCN3CCN(Cc4ccc5c(c4)OCO5)CC3)sc2c1 [Compound 16, 3-(4-Benzo[1,3]dioxol-5-ylmethyl-piperazin-1-yl)-N-(6-methanesulfonyl-benzothiazol-2-yl)-propionamide]	5.24 µM	> 100	
CS(=O)(=O)c1ccc2nc(NC(=O)CCN3CCN(c4ccc(C(F)(F)F)cc4)CC3)sc2c1 [Compound 17, N-(6-Methanesulfonyl-benzothiazol-2-yl)-3-[4-(4-trifluoromethyl-phenyl)-piperazin-1-yl]-propionamide]	26.4 ± 0.551 µM	> 100	
OO [Compound H2O2, hydrogen peroxide]			Cell viability with H2O2 alone (SH-SY5Y cells [6]): 54.90%
COc1cc(/C=C/C(=O)CC(=O)/C=C/c2ccc(O)c(OC)c2)ccc1O [Curcumin, reference compound]			Aβ1-42 fibril formation by TEM (Aβ1-42 [5]): small dissociated aggregates and no characteristic fibrils of Aβ1-42
COc1cc2c(cc1OC)C(=O)C(CC1CCN(Cc3ccccc3)CC1)C2 (centres unmarked) [Donepezil, reference compound]			Transfer latency (TL) ([3]; scopolamine 3 mg kg−1 + donepezil 5 mg kg−1 i.p., 7 days): 15.08 ± 1 s
CN1[C@@H]2C[C@@H](OC(=O)[C@H](CO)c3ccccc3)C[C@H]1[C@@H]1O[C@@H]12 [scopolamine, Scopolamine hydrobromide, reference compound]			Transfer latency (TL) ([3]; scopolamine 3 mg kg−1 i.p. alone, retention trial): 22.00 ± 0.81 s; T2/T1 ratio (second interaction trial/first interaction trial) (scopolamine induced mice; scopolamine 3 mg kg−1 alone, mean SEM of 6 animals): 1.103 ± 0.037
